Source: paper PMC6680768, “Synthesis and Preclinical Evaluation of Radio-Iodinated GRPR/PSMA Bispecific Heterodimers for the Theranostics Application in Prostate Cancer” (Pharmaceutics, 2019)

How the values were obtained:
[1] = target: T1, PSMA (Homo sapiens, UniProt Q04609); assay: Binding inhibition of [^111In]In-PSMA-617 on PC-3pip cells, GRPRs blocked (IC50); settings: competitor 1 nM [^111In]In-PSMA-617, GRPRs blocked with 200 nM RM26, 4 °C, 5 h, non-iodinated heterodimers
T1 construct: host or cells: PC-3pip (PC-3 cells transfected with PSMA)
Method: Cells were incubated at 4 °C for 5 h. After incubation, the cells were detached with trypsin–EDTA and the activity in cell samples was measured. Data were plotted using nonlinear regression.

[2] = type: physicochemical
Method: The octanol–water distribution coefficient was determined as described earlier. Briefly, 500 µL of Milli-Q water and 500 µL of n-octanol were added in an Eppendorf tube containing radiolabeled peptide. The tube was vortexed for 2 min and centrifuged for 20 s. Fractions of each phase were collected and their activity was measured.

[3] = system: PC-3 cells (GRPR positive); assay: Cellular retention of activity after interrupted incubation, PC-3 cells; type: cell-based; settings: 24 h of incubation, normalized to 0 h
Method: (§1) The cellular retention of activity after interrupted incubation was carried out on PC-3, LNCaP, and PC-3pip cells. A concentration of 20 nM of each radiolabeled heterodimer was added to the cells and the dishes were incubated at 4 °C for 2 h. The media was aspired, and the cells were further incubated with complete media at 37 °C. At predetermined time points, the media was collected, and the cells were detached with trypsin–EDTA and collected. The radioactivity content of each collected fraction was measured.

[4] = system: PC-3pip cells (GRPR and PSMA positive); assay: Cellular retention of activity after interrupted incubation, PC-3pip cells; type: cell-based; settings: 24 h
Method: as §1

[5] = system: PSMA; settings: LNCaP xenografts, 1 h pi, p < 0.05
Method: All in vivo experiments were carried out on BALB/c nu/nu mice provided by Scanbur A/S (Sweden). PC-3, LNCaP, and PC-3pip tumor xenografts were established by implanting 5 × 10^6 cells/mouse for PC-3 and PC-3pip xenografts, and 10 × 10^6 cells for LNCaP xenografts. The in vivo experiments were carried out when palpable tumors were observed. Animal weight at the moment of experiment was 20 ± 2 g, 21 ± 3 g, 14.5 ± 0.8 g, and average tumor size was 0.2 ± 0.1 g, 0.05 ± 0.04 g, 0.4 ± 0.1 g for PC-3, LNCaP, and PC-3pip models, respectively.
In vivo specificity for the radiolabeled heterodimers was tested on mice bearing PC-3 or LNCaP xenografts. The mice were injected with 40 pmol (30 KBq) of the radiolabeled heterodimer in 1% bovine serum albumin (BSA) in PBS. For the mice in the blocked group, 7.5 nmol of either unlabeled NOTA-PEG4-RM26 or PSMA-617 was added to the radiolabeled heterodimer in order to block GRPR in PC-3 xenografted mice or PSMA in LNCaP xenografted mice, respectively. Animals were sacrificed by heart punctures exsanguination after pre-injection of Ketalar–Rompun solution (10 mg/mL Ketalar and 1 mg/mL Rompun; 20 μL solution/gram of body weight). The mice were dissected 1 h post-injection (pi) and the organs of interest were collected. The activity uptake in organs was measured.

[6] = system: LNCaP cells (PSMA positive); assay: Cellular retention of activity after interrupted incubation, LNCaP cells; type: cell-based; settings: 24 h
Method: as §1

[7] = parameters: species or system Balb/c nu/nu mice; settings: mouse, in vivo
Method: (§2) The radioactivity uptake in organs was studied 1, 3, 24, and 72 h pi as described above.

[8] = system: PC-3pip (GRPR and PSMA positive) xenografts; parameters: species or system Balb/c nu/nu mice; settings: mouse, in vivo
Method: as §2

[9] = target: T1, PSMA; parameters: method as in PMID 25883127; settings: cited from earlier work

T1 sequence (Q04609 whole entry): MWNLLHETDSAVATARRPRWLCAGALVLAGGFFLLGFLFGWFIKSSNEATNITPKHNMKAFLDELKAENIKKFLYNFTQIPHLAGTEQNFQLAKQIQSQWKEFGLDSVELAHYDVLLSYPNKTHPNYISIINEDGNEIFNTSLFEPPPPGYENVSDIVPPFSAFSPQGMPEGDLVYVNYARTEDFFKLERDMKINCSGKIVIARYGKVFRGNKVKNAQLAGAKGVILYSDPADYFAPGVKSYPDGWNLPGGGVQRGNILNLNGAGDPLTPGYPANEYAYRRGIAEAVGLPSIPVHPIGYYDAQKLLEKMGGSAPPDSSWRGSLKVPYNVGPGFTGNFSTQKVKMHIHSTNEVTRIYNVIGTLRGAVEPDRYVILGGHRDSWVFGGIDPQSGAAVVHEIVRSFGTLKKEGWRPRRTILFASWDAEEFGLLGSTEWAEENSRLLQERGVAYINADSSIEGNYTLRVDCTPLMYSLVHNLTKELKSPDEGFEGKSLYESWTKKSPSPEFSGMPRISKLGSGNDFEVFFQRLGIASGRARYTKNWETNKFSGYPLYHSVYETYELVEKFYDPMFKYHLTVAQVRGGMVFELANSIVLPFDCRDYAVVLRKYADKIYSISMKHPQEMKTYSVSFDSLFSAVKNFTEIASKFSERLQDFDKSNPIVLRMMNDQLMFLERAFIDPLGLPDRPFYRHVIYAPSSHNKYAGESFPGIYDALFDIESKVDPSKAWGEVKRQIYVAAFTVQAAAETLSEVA

CC(C)C[C@H](NC(=O)C[C@H](O)[C@H](CC(C)C)NC(=O)[C@H](Cc1c[nH]cn1)NC(=O)CNC(=O)[C@@H](NC(=O)[C@H](C)NC(=O)[C@H](Cc1c[nH]c2ccccc12)NC(=O)[C@H](CCC(N)=O)NC(=O)[C@@H](Cc1ccccc1)NC(=O)CCOCCOCCNC(=O)[C@H](Cc1ccc(O)cc1)n1cc(COCCOCCC(=O)NC[C@H]2CC[C@H](C(=O)N[C@@H](Cc3ccc4ccccc4c3)C(=O)NCCCC[C@H](NC(=O)N[C@@H](CCC(=O)O)C(=O)O)C(=O)O)CC2)nn1)C(C)C)C(N)=O [BO530]
IC50 [1]: 98 ± 13 nM

CC(C)C[C@H](NC(=O)C[C@H](O)[C@H](CC(C)C)NC(=O)[C@H](Cc1c[nH]cn1)NC(=O)CNC(=O)[C@@H](NC(=O)[C@H](C)NC(=O)[C@H](Cc1c[nH]c2ccccc12)NC(=O)[C@H](CCC(N)=O)NC(=O)[C@@H](Cc1ccccc1)NC(=O)CCOCCOCCNC(=O)[C@H](Cc1ccc(O)cc1)n1cc(CCCCCCCC(=O)NC[C@H]2CC[C@H](C(=O)N[C@@H](Cc3ccc4ccccc4c3)C(=O)NCCCC[C@H](NC(=O)N[C@@H](CCC(=O)O)C(=O)O)C(=O)O)CC2)nn1)C(C)C)C(N)=O [BO535]
IC50 [1]: 100 ± 10 nM

CC(C)C[C@H](NC(=O)C[C@H](O)[C@H](CC(C)C)NC(=O)[C@H](Cc1c[nH]cn1)NC(=O)CNC(=O)[C@@H](NC(=O)[C@H](C)NC(=O)[C@H](Cc1c[nH]c2ccccc12)NC(=O)[C@H](CCC(N)=O)NC(=O)[C@@H](Cc1ccccc1)NC(=O)CCOCCOCCNC(=O)[C@H](Cc1ccc(O)c(I)c1)n1cc(COCCOCCC(=O)NC[C@H]2CC[C@H](C(=O)N[C@@H](Cc3ccc4ccccc4c3)C(=O)NCCCC[C@H](NC(=O)N[C@@H](CCC(=O)O)C(=O)O)C(=O)O)CC2)nn1)C(C)C)C(N)=O [[^125I]I-BO530]
logD [2]: -0.52
cell-associated activity [3]: 14% ± 2%
decrease of cell-associated activity [4]: 20%
difference in tumor activity uptake between non-blocked and blocked groups (in vivo specificity to PSMA) [5]: demonstrated significant difference
cell associated activity from initial [6]: 60%
tissue uptake at 24 h [7]: < 1 %ID/g
area under the curve (AUC), kidneys versus tumors [8]: more than two-fold higher
area under the curve (AUC), tumor versus blood [8]: 10 fold

CC(C)C[C@H](NC(=O)C[C@H](O)[C@H](CC(C)C)NC(=O)[C@H](Cc1c[nH]cn1)NC(=O)CNC(=O)[C@@H](NC(=O)[C@H](C)NC(=O)[C@H](Cc1c[nH]c2ccccc12)NC(=O)[C@H](CCC(N)=O)NC(=O)[C@@H](Cc1ccccc1)NC(=O)CCOCCOCCNC(=O)[C@H](Cc1ccc(O)c(I)c1)n1cc(CCCCCCCC(=O)NC[C@H]2CC[C@H](C(=O)N[C@@H](Cc3ccc4ccccc4c3)C(=O)NCCCC[C@H](NC(=O)N[C@@H](CCC(=O)O)C(=O)O)C(=O)O)CC2)nn1)C(C)C)C(N)=O [[^125I]I-BO535]
logD [2]: 1.07
decrease of cell-associated activity [4]: 35%
difference in tumor activity uptake between non-blocked and blocked groups (in vivo specificity to PSMA) [5]: failed to demonstrate in vivo specificity

O=C([O-])CN1CCN(CC(=O)[O-])CCN(CC(=O)NCC2CCC(C(=O)N[C@@H](Cc3ccc4ccccc4c3)C(=O)NCCCC[C@H](NC(=O)N[C@@H](CCC(=O)O)C(=O)O)C(=O)O)CC2)CCN(CC(=O)[O-])CC1.[177Lu+3] (some centres unmarked) [^177Lu-PSMA-617]
initial uptake in kidneys versus tumors [9]: at least 10 fold
